Source: PubChem BioAssay AID328 (DTP/NCI, 2004)
Values joined by “and” are separate entries in the source; they are usually repeats but may differ in a detail not shown here. Equal entries are not always repeated. Inconclusive results and toxic doses are left out.

Test system: BDF1 mice, P388 leukemia ip, median survival T/C
Test: NCI In Vivo Anticancer Drug Screen. Data for tumor model P388 Leukemia (intraperitoneal) in B6D2F1 (BDF1) mice
Conditions: endpoint: median survival time, higher = longer survival
Method in brief: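 Each value expresses how treatment altered survival: treated-mouse outcome over vehicle-mouse outcome, both groups bearing the transplanted tumour.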

[1] = dose: 50.0 mg/kg/injection, schedule: Q04DX003 (ip), vehicle: saline
[2] = dose: 200.0 mg/kg/injection, schedule: Q04DX003 (ip), vehicle: saline
[3] = dose: 100.0 mg/kg/injection, schedule: Q04DX003 (ip), vehicle: Klucel (hydroxypropylcellulose) (HPC)
[4] = dose: 200.0 mg/kg/injection, schedule: Q04DX003 (ip), vehicle: Klucel (hydroxypropylcellulose) (HPC)
[5] = dose: 400.0 mg/kg/injection, schedule: Q04DX003 (ip), vehicle: Klucel (hydroxypropylcellulose) (HPC)
[6] = dose: 50.0 mg/kg/injection, schedule: Q01DX009 (ip), vehicle: saline with Tween-80
[7] = dose: 100.0 mg/kg/injection, schedule: Q01DX009 (ip), vehicle: saline with Tween-80
[8] = dose: 200.0 mg/kg/injection, schedule: Q01DX009 (ip), vehicle: saline with Tween-80

## COc1ccc2c(C)[n+]3ccc4cc(OC)c(OC)cc4c3cc2c1 (tested in a mixture with another compound)
dose: 25.0 mg/kg/injection, schedule: Q04DX003 (ip), vehicle: saline
  T/C: 154 % of control
dose: 33.0 mg/kg/injection, schedule: Q01DX009 (ip), vehicle: saline
  T/C: 186 % of control
dose: 50.0 mg/kg/injection, schedule: Q01DX009 (ip), vehicle: saline
  T/C: 181 % of control
[1]
  T/C: 154 % of control and 181 % of control
dose: 75.0 mg/kg/injection, schedule: Q01DX009 (ip), vehicle: saline
  T/C: 118 % of control
[2]
  T/C: 150 % of control

## [NH-]C(CCC(N)=O)C(=O)O.[NH-]C(CCCCN)C(=O)O.[Zn+2] (stereo unspecified)
dose: 50.0 mg/kg/injection, schedule: Q01DX005 (ip), vehicle: saline
  T/C: 106 % of control

## CCCCC(=O)OCC1OC(n2cnc3c(=S)nc[nH]c32)C(OC(=O)CCCC)C1OC(=O)CCCC (stereo unspecified)
dose: 12.5 mg/kg/injection, schedule: Q01DX009 (sc), vehicle: olive oil, sesame oil, peanut oil
  T/C: 100 % of control
dose: 25.0 mg/kg/injection, schedule: Q01DX009 (sc), vehicle: olive oil, sesame oil, peanut oil
  T/C: 91 % of control
dose: 50.0 mg/kg/injection, schedule: Q01DX009 (sc), vehicle: olive oil, sesame oil, peanut oil
  T/C: 100 % of control
dose: 100.0 mg/kg/injection, schedule: Q01DX009 (sc), vehicle: olive oil, sesame oil, peanut oil
  T/C: 96 % of control
dose: 100.0 mg/kg/injection, schedule: Q04DX003 (sc), vehicle: olive oil, sesame oil, peanut oil
  T/C: 108 % of control
dose: 200.0 mg/kg/injection, schedule: Q04DX003 (sc), vehicle: olive oil, sesame oil, peanut oil
  T/C: 108 % of control
dose: 400.0 mg/kg/injection, schedule: Q04DX003 (sc), vehicle: olive oil, sesame oil, peanut oil
  T/C: 116 % of control

## COC(=O)C(CSCSC)NC(=O)NC1CCCCC1 (stereo unspecified)
dose: 100.0 mg/kg/injection, schedule: Q04DX003 (ip), vehicle: saline with Tween-80
  T/C: 95 % of control
dose: 200.0 mg/kg/injection, schedule: Q04DX003 (ip), vehicle: saline with Tween-80
  T/C: 104 % of control
dose: 400.0 mg/kg/injection, schedule: Q04DX003 (ip), vehicle: saline with Tween-80
  T/C: 95 % of control

## NOCc1cccc([N+](=O)[O-])c1
[1]
  T/C: 100 % of control
dose: 100.0 mg/kg/injection, schedule: Q04DX003 (ip), vehicle: saline
  T/C: 91 % of control
[2]
  T/C: 91 % of control

## CCCCCCCC(=O)OCC(=O)[C@]1(O)Cc2c(O)c3c(c(O)c2[C@@H](OC2CC(N)C(O)C(C)O2)C1)C(=O)c1c(OC)cccc1C3=O (stereo partly specified)
dose: 0.5 mg/kg/injection, schedule: Q01DX009 (ip), vehicle: water
  T/C: 204 % of control
dose: 1.0 mg/kg/injection, schedule: Q01DX009 (ip), vehicle: water
  T/C: 254 % of control and 190 % of control
dose: 1.0 mg/kg/injection, schedule: Q04DX003 (ip), vehicle: water
  T/C: 207 % of control
dose: 2.0 mg/kg/injection, schedule: Q01DX009 (ip), vehicle: water
  T/C: 231 % of control and 311 % of control
dose: 2.0 mg/kg/injection, schedule: Q04DX003 (ip), vehicle: water
  T/C: 264 % of control
dose: 2.5 mg/kg/injection, schedule: Q04DX003 (ip), vehicle: water
  T/C: 116 % of control
dose: 2.88 mg/kg/injection, schedule: Q04DX003 (ip), vehicle: water
  T/C: 215 % of control
dose: 4.0 mg/kg/injection, schedule: Q01DX009 (ip), vehicle: water
  T/C: 90 % of control
dose: 4.0 mg/kg/injection, schedule: Q04DX003 (ip), vehicle: water
  T/C: 271 % of control
dose: 4.8 mg/kg/injection, schedule: Q04DX003 (ip), vehicle: water
  T/C: 339 % of control
dose: 10.0 mg/kg/injection, schedule: Q04DX003 (ip), vehicle: water
  T/C: 174 % of control
dose: 40.0 mg/kg/injection, schedule: Q04DX003 (ip), vehicle: water
  T/C: 100 % of control

## O=Cc1[nH]c(=S)[nH]c(=O)c1Cc1ccccc1Cl
[3]
  T/C: 100 % of control
[4]
  T/C: 100 % of control
[5]
  T/C: 100 % of control

## CS(=O)(=O)OCCC(=O)N1CCN(C(=O)CCOS(C)(=O)=O)CC1
dose: 11.2 mg/kg/injection, schedule: Q01DX010 (ip), vehicle: saline
  T/C: 150 % of control
dose: 22.5 mg/kg/injection, schedule: Q01DX010 (ip), vehicle: saline
  T/C: 163 % of control
dose: 45.0 mg/kg/injection, schedule: Q01DX010 (ip), vehicle: saline
  T/C: 150 % of control
dose: 90.0 mg/kg/injection, schedule: Q01DX010 (ip), vehicle: saline
  T/C: 250 % of control

## COc1cc(N(CCCl)CCCl)c(OC)cc1/C=N\Nc1nncn1N
dose: 2.2 mg/kg/injection, schedule: Q01DX009 (ip), vehicle: saline
  T/C: 168 % of control
dose: 3.3 mg/kg/injection, schedule: Q01DX009 (ip), vehicle: saline
  T/C: 163 % of control
dose: 5.0 mg/kg/injection, schedule: Q01DX009 (ip), vehicle: saline
  T/C: 186 % of control
dose: 5.0 mg/kg/injection, schedule: Q04DX003 (ip), vehicle: saline
  T/C: 179 % of control
dose: 6.25 mg/kg/injection, schedule: Q01DX009 (ip), vehicle: saline
  T/C: 172 % of control
dose: 7.5 mg/kg/injection, schedule: Q01DX009 (ip), vehicle: saline
  T/C: 240 % of control
dose: 10.0 mg/kg/injection, schedule: Q04DX003 (ip), vehicle: saline
  T/C: 212 % of control
dose: 12.5 mg/kg/injection, schedule: Q01DX009 (ip), vehicle: saline
  T/C: 90 % of control
dose: 20.0 mg/kg/injection, schedule: Q04DX003 (ip), vehicle: saline
  T/C: 108 % of control
dose: 25.0 mg/kg/injection, schedule: Q01DX009 (ip), vehicle: saline
  T/C: 86 % of control
dose: 25.0 mg/kg/injection, schedule: Q04DX003 (ip), vehicle: saline sonified
  T/C: 177 % of control

## Cc1cc(Cl)n[nH]1
dose: 25.0 mg/kg/injection, schedule: Q01DX009 (ip), vehicle: saline with Tween-80
  T/C: 98 % of control

## S=C1NC2=C(CCC/C2=C\c2ccccc2)C(c2ccccc2)N1 (stereo unspecified)
[6]
  T/C: 91 % of control
[7]
  T/C: 96 % of control

## COc1ccc(-c2cnc(C(N)=O)c(=O)[nH]2)cc1
[7]
  T/C: 104 % of control
[8]
  T/C: 108 % of control
dose: 400.0 mg/kg/injection, schedule: Q01DX009 (ip), vehicle: saline with Tween-80
  T/C: 100 % of control

## CC(=O)O[C@H]1CC[C@H]2[C@@H]3CC[C@H]4CC=C(C#N)C[C@]4(C)[C@H]3CC[C@]12C
dose: 0.75 mg/kg/injection, schedule: Q01DX009 (ip), vehicle: Klucel (hydroxypropylcellulose) (HPC)
  T/C: 95 % of control
dose: 1.5 mg/kg/injection, schedule: Q01DX009 (ip), vehicle: Klucel (hydroxypropylcellulose) (HPC)
  T/C: 92 % of control and 100 % of control
dose: 3.0 mg/kg/injection, schedule: Q01DX009 (ip), vehicle: Klucel (hydroxypropylcellulose) (HPC)
  T/C: 104 % of control
dose: 6.0 mg/kg/injection, schedule: Q01DX009 (ip), vehicle: Klucel (hydroxypropylcellulose) (HPC)
  T/C: 103 % of control
dose: 25.0 mg/kg/injection, schedule: Q01DX009 (ip), vehicle: Klucel (hydroxypropylcellulose) (HPC)
  T/C: 88 % of control
dose: 50.0 mg/kg/injection, schedule: Q01DX009 (ip), vehicle: Klucel (hydroxypropylcellulose) (HPC)
  T/C: 100 % of control
dose: 100.0 mg/kg/injection, schedule: Q01DX009 (ip), vehicle: Klucel (hydroxypropylcellulose) (HPC)
  T/C: 95 % of control
[3]
  T/C: 109 % of control
dose: 200.0 mg/kg/injection, schedule: Q01DX009 (ip), vehicle: Klucel (hydroxypropylcellulose) (HPC)
  T/C: 100 % of control
[4]
  T/C: 109 % of control
[5]
  T/C: 86 % of control

## CS(=O)CC(O)(c1cccs1)C1CC1 (stereo unspecified)
[6]
  T/C: 103 % of control
[7]
  T/C: 117 % of control
[8]
  T/C: 98 % of control

## O=C(CC(=O)C(F)(F)F)c1ccc(-c2ccccc2)cc1
[6]
  T/C: 110 % of control
[7]
  T/C: 122 % of control

## CCOC(=O)C1CSCC1=O (stereo unspecified)
dose: 12.5 mg/kg/injection, schedule: Q01DX009 (ip), vehicle: water
  T/C: 113 % of control
dose: 25.0 mg/kg/injection, schedule: Q01DX009 (ip), vehicle: water
  T/C: 113 % of control
dose: 50.0 mg/kg/injection, schedule: Q01DX009 (ip), vehicle: water
  T/C: 98 % of control
dose: 100.0 mg/kg/injection, schedule: Q01DX009 (ip), vehicle: water
  T/C: 104 % of control
dose: 200.0 mg/kg/injection, schedule: Q01DX009 (ip), vehicle: water
  T/C: 95 % of control
dose: 200.0 mg/kg/injection, schedule: Q04DX003 (ip), vehicle: water
  T/C: 101 % of control
dose: 300.0 mg/kg/injection, schedule: Q04DX003 (ip), vehicle: water
  T/C: 117 % of control
dose: 400.0 mg/kg/injection, schedule: Q01DX009 (ip), vehicle: water
  T/C: 101 % of control
dose: 400.0 mg/kg/injection, schedule: Q04DX003 (ip), vehicle: water
  T/C: 106 % of control
